Assay [1] addresses T1, Sm-EboD (Sporocytophaga myxococcoides, UniProt P0DY70).
T1 sequence (P0DY70 1-387): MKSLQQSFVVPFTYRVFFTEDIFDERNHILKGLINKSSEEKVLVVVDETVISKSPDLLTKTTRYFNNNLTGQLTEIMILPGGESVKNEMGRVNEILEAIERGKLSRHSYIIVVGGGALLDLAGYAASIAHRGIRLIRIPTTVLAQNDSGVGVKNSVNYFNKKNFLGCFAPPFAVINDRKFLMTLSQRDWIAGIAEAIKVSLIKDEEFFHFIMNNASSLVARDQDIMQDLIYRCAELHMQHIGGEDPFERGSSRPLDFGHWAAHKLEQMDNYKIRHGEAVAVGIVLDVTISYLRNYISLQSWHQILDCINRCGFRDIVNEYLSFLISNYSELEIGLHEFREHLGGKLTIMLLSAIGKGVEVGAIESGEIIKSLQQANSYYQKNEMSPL
The experiment in a line: TLC, product formation. The format is biochemical. The settings on record: NAD+, Co2+; Tris-HCl pH 7.5; 37°C.

The target in assay [2] is T1, Sm-EboD. Nature of the assay: large-scale reaction, HR-MS, 1D and 2D NMR of isolated product. The format is biochemical. The settings on record: NAD+, Co2+; Tris-HCl pH 7.5; 37°C.

Turning to `O=P(O)(O)OC[C@H]1OC(O)[C@@H](O)[C@@H](O)[C@@H]1O` (some centres unmarked) [Man6P], the “TLC, product formation” value at Sm-EboD [1] is given as “gave the same product with an even better conversion rate”. As for `O=C1C[C@@H](O)[C@@H](O)[C@@H](O)[C@@H]1O` [DEI, 2-deoxy-4-epi-scyllo-inosose], the “large-scale reaction, HR-MS, 1D and 2D NMR of isolated product” value on Sm-EboD [2] is recorded as “revealed the identity of the compound to be 2-deoxy-4-epi-scyllo-inosose (DEI)”.

These data come from article PMC11567786 (ACS chemical biology, 2024).
